According to US20240262826A1, “WILD TYPE KIT INHIBITORS” (Blueprint Medicines Corporation, priority 2022, published 2024):

Legend:
[1] = target: human P-glycoprotein (P-gp, MDR1) (Homo sapiens (Human), UniProt P08183); test: MDCK-MDR1 cell monolayer drug transport assay (P-gp efflux ratio); format: in vitro ADME; settings: pH 7.4, MDCK-MDR1 cells, 1 uM concentration of compound, read-out: Pgp Efflux Ratio, 1 uM
In short: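 P-gp substrate potential tested in MDCK-MDR1 monolayers on Transwell supports, cultured 4-8 days; monolayers with TEER <42 ohms·cm2 discarded. Transport run in HBSS (10 mM HEPES, pH 7.4) at 37° C with compound working solution at 1 μM.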

wild type c-kit = wild type c-kit (Homo sapiens (Human), UniProt P10721); test: PathScan phospho c-kit (Tyr719) sandwich ELISA in SCF-stimulated M-07e cells (pKIT assay); format: cell-based; settings: ELISA assay (values not marked *)
Chain of wild type c-kit (P10721 26-976): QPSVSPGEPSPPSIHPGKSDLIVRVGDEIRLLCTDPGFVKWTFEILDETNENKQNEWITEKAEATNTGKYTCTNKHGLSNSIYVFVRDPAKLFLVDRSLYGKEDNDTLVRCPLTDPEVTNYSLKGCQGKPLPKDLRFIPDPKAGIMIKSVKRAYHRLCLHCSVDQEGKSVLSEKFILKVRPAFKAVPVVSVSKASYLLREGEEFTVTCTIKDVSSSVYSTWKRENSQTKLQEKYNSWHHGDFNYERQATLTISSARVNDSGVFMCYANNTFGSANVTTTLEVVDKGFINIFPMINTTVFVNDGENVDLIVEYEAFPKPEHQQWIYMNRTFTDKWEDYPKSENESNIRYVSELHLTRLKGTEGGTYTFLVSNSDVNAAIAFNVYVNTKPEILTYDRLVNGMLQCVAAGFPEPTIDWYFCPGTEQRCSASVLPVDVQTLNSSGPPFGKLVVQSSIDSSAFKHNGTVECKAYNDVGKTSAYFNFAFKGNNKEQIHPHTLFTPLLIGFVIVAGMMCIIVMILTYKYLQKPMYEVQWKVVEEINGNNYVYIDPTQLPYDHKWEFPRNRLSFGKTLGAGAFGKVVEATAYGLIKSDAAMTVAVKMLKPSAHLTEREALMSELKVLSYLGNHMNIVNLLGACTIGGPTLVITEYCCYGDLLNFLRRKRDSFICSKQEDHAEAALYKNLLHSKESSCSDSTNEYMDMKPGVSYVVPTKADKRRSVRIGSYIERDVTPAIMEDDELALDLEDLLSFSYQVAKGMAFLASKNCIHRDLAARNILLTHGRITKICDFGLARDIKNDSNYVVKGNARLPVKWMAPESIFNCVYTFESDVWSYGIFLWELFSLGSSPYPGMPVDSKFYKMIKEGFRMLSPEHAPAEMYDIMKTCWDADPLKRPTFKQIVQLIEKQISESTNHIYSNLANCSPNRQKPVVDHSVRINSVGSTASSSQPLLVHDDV
In short: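 Tyr719-phosphorylated c-kit was measured by colorimetric (TMB) sandwich ELISA in lysates of M-07e cells. Cells were starved 4 h without serum or GM-CSF, dosed 60 min at 37 °C with compound (8 points, duplicate, 0.25% DMSO), and stimulated 10 min with human SCF (500 ng/mL as added). IC50 values came from 4-parameter logistic regression.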

Chain of human P-glycoprotein (P-gp, MDR1) (P08183 whole entry): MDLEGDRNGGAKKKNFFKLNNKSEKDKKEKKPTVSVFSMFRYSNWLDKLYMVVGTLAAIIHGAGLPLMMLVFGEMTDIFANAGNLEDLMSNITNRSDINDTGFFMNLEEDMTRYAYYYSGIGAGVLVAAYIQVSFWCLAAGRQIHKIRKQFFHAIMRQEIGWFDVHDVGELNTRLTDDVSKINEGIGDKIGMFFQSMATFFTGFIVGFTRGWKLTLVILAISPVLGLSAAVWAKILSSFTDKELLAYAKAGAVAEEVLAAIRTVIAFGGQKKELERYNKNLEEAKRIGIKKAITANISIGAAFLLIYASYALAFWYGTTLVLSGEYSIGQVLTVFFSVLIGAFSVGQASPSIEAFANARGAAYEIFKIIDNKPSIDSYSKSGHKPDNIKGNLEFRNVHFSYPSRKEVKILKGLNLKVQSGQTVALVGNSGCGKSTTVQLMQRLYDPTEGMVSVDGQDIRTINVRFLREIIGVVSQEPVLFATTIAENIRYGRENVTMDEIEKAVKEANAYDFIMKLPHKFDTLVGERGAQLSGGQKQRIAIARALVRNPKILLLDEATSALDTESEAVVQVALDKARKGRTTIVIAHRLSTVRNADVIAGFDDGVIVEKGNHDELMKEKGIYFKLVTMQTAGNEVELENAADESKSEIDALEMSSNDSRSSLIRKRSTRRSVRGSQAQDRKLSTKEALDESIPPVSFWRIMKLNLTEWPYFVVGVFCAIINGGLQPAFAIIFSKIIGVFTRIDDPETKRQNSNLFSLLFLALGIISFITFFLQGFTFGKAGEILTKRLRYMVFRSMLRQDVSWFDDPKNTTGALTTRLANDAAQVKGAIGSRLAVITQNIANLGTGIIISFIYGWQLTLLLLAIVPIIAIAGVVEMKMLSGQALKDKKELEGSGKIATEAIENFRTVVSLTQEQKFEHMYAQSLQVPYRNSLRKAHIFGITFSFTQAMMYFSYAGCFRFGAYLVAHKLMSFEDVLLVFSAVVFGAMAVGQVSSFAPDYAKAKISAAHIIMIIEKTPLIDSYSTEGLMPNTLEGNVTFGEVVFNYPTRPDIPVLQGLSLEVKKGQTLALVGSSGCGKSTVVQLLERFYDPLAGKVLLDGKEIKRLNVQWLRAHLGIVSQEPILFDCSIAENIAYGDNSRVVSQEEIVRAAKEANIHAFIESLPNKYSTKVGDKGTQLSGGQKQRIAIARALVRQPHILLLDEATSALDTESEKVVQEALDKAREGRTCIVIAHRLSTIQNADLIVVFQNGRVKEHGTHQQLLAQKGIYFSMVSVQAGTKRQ

## COCCNc1ccn2ncc(C(=O)Nc3cc(-c4nnn(C5CC(F)C5)n4)ccc3C)c2c1 (centres unmarked) [Example 151, N-(5-(2-(3-fluorocyclobutyl)-2H-tetrazol-5-yl)-2-methylphenyl)-5-((2-methoxyethyl)amino)pyrazolo[1,5-a]pyridine-3-carboxamide]
[1]
  efflux ratio at 2 h, 1 µM: 4.8
Wild type c-kit
  IC50: 4.1 nM

## Cc1cc(Cl)c(-c2nnn(C3CC(F)(F)C3)n2)cc1NC(=O)c1cnn2ccc(N3CCOCC3)cc12 [Example 168, N-(4-chloro-5-(2-(3,3-difluorocyclobutyl)-2H-tetrazol-5-yl)-2-methylphenyl)-5-morpholinopyrazolo[1,5-a]pyridine-3-carboxamide]
[1]
  efflux ratio at 2 h, 1 µM: 3.2
Wild type c-kit
  IC50: 9.2 nM

## COC[C@@H](O)Cn1nc(C)c(-c2ccn3ncc(C(=O)Nc4cc(-c5nnn(C)n5)ccc4C)c3c2)c1C [Example 245, (S)-5-(1-(2-hydroxy-3-methoxypropyl)-3,5-dimethyl-1H-pyrazol-4-yl)-N-(2-methyl-5-(2-methyl-2H-tetrazol-5-yl)phenyl)pyrazolo[1,5-a]pyridine-3-carboxamide]
[1]
  efflux ratio at 2 h, 1 µM: 2.3
Wild type c-kit
  IC50: 0.8 nM

## Cc1nn(C[C@H]2CN(C)CCO2)c(C)c1-c1ccn2ncc(C(=O)Nc3cc(-c4nnn(C5CC5)n4)ccc3Cl)c2c1 [Example 274, (R)-N-(2-chloro-5-(2-cyclopropyl-2H-tetrazol-5-yl)phenyl)-5-(3,5-dimethyl-1-((4-methylmorpholin-2-yl)methyl)-1H-pyrazol-4-yl)pyrazolo[1,5-a]pyridine-3-carboxamide]
[1]
  efflux ratio at 2 h, 1 µM: 1.7
Wild type c-kit
  IC50: 0.6 nM

## COC(=O)N1CC(n2nnc(-c3ccc(C)c(NC(=O)c4cnn5ccc(NCC(C)(F)F)cc45)c3)n2)C1 [Example 92, methyl 3-(5-(3-(5-((2,2-difluoropropyl)amino)pyrazolo[1,5-a]pyridine-3-carboxamido)-4-methylphenyl)-2H-tetrazol-2-yl)azetidine-1-carboxylate]
[1]
  efflux ratio at 2 h, 1 µM: 11.4
Wild type c-kit
  IC50: 22.1 nM

## COCCOc1ccc2c(C(=O)Nc3cc(-c4nnn(C5CN(C(=O)OC)C5)n4)ccc3C)cnn2c1 [Example 143, methyl 3-(5-(3-(6-(2-methoxyethoxy)pyrazolo[1,5-a]pyridine-3-carboxamido)-4-methylphenyl)-2H-tetrazol-2-yl)azetidine-1-carboxylate]
[1]
  efflux ratio at 2 h, 1 µM: 4
Wild type c-kit
  IC50: 10.5 nM

## COCCOCCNc1ccn2ncc(C(=O)Nc3cc(-c4nnn(C5CN(C(=O)OC)C5)n4)ccc3C)c2c1 [Example 146, methyl 3-(5-(3-(5-((2-(2-methoxyethoxy)ethyl)amino)pyrazolo[1,5-a]pyridine-3-carboxamido)-4-methylphenyl)-2H-tetrazol-2-yl)azetidine-1-carboxylate]
[1]
  efflux ratio at 2 h, 1 µM: 15.4
Wild type c-kit
  IC50: 88.8 nM

## C[C@](O)(CO)Cn1cc(-c2ccn3ncc(C(=O)Nc4cc(-c5nnn(C6CC6)n5)ccc4Cl)c3c2)cn1 [Example 266, (R)-N-(2-chloro-5-(2-cyclopropyl-2H-tetrazol-5-yl)phenyl)-5-(1-(2,3-dihydroxy-2-methylpropyl)-1H-pyrazol-4-yl)pyrazolo[1,5-a]pyridine-3-carboxamide]
[1]
  efflux ratio at 2 h, 1 µM: 3.4
Wild type c-kit
  IC50: 0.3 nM

## COC(=O)N1CC(n2nnc(-c3ccc(C)c(NC(=O)c4cnn5ccc(OCCC(C)(C)O)cc45)c3)n2)C1 [Example 65, methyl 3-(5-(3-(5-(3-hydroxy-3-methylbutoxy)pyrazolo[1,5-a]pyridine-3-carboxamido)-4-methylphenyl)-2H-tetrazol-2-yl)azetidine-1-carboxylate]
[1]
  efflux ratio at 2 h, 1 µM: 23.5
Wild type c-kit
  IC50: 33.7 nM

## COC(=O)N1CC(c2cnn(-c3ccc(C)c(NC(=O)c4cnn5ccc(NC6COC6)cc45)c3)n2)C1 [Example 141, methyl 3-(2-(4-methyl-3-(5-(oxetan-3-ylamino)pyrazolo[1,5-a]pyridine-3-carboxamido)phenyl)-2H-1,2,3-triazol-4-yl)azetidine-1-carboxylate]
[1]
  efflux ratio at 2 h, 1 µM: 36.4
Wild type c-kit
  IC50: 7.6 nM
